Experimental findings from patent US20060183921A1, “Pharmaceutically active compounds and methods of use” (priority 2001, published 2006) are described below.

Molecules are shown by their SMILES.

Data set [1] has as its target T1, human recombinant A1-adenosine receptors (Homo sapiens, UniProt P30542).
T1 construct: expressed in transfected cells; host or cells: CHO (Chinese hamster ovary) cells, CHO:huA1, under G-418 selection
T1 sequence (P30542 1-326): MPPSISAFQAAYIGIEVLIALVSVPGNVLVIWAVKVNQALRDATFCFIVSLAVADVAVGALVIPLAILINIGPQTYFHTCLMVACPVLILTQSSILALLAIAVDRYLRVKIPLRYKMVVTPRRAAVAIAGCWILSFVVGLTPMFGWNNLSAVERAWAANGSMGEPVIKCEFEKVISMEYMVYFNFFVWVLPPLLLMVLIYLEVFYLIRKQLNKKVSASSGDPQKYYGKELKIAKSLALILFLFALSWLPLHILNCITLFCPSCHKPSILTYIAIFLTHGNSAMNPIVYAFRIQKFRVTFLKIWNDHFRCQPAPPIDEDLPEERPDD
Description: Measurement of cAMP enhancement in CHO cells (allosteric enhancement, cAMP content by radioimmunoassay). The data set is classed as cell-based. The note with it: CHO:huA1 cells, forskolin 1 μM, rolipram 20 μM, CPA 0.01 nM, 6 min at 36° C., control 100%. The protocol: Chinese hamster ovary cells expressing human recombinant A1-adenosine receptors (CHO:huA1 cells) at a density of approximately 8000 fmol/mg protein were prepared as previously described (Kollias-Baker et al., (1997), J. Pharmacol. Exp. Ther. 281: 761-768) and aliquots of the cells at low passage numbers were frozen and stored in liquid nitrogen. When compounds were tested, an aliquot of CHO:huA1 cells were rapidly thawed after removal from liquid nitrogen, then grown in Ham's F12 culture medium with 10% fetal bovine serum and 0.5 mg/mL of antibiotic G-418 (Shryock, Ozeck, and Belardinelli (1998), Mol. Pharmacol. 53: 886-893). Cells were passaged thrice weekly. Aliquots of cells were placed into 12-well plates with culture medium, serum, and antibiotic for 48 hours, by which time the cells had grown to a confluent monolayer.
Allosteric enhancement was measured as the action of a test compound at different concentrations (0.01, 0.1, 1 and 10 μM) to reduce the cAMP content of CHO:huA1 cells. To initiate an experiment, growth medium was removed from the 12-well plates and cells were washed once with warm Hanks' buffered saline. The wash solution was then removed and replaced with fresh Hanks' solution containing forskolin (1 μM), rolipram (20 μM), N^6-cyclopentyladenosine (CPA, 0.01 nM), adenosine deaminase (2 U/mL), and the test compound. Forskolin was used to stimulate the activity of adenylyl cyclase, rolipram to inhibit cAMP phosphodiesterase, adenosine deaminase to degrade endogenous adenosine, and CPA to cause a small increase of the number of activated adenosine receptors. After 6 min of incubation at 36° C. in the presence of test compound, the incubation solution was removed and hydrochloric acid (final concentration 50 mM) was added to terminate drug action. The content of cAMP in acidified extracts of cells was determined by radioimmunoassay as previously described (Kollias-Baker et al., (1997), J. Pharmacol. Exp. Ther. 281: 761-768). Because the magnitude of the effects of allosteric enhancers on CHO:huA1 cells changed subtly with passage number and differed slightly among different aliquots of cells, the actions of the test compounds and the action of a reference compound (PD 81,723) were assessed in each experiment. The effect of each test compound on cAMP content is presented in the accompanying table as a percentage of the value of cAMP content in the absence of drug (control, 100%). Each value is a mean±standard error of 6 determinations in each of the number of experiments indicated in the “n” column of the table.

For the compound `Cc1cccc2c1C(=O)c1c-2csc1N` [Example 2, 1-Amino-7-methyl-2-thia-cyclopenta[a]inden-8-one], the melting point (in general, the temperature, or range, at which the solid turns liquid) fell in the range of 196 to 198 °C.
Compound `Cc1ccc2c(c1)-c1csc(N)c1C2=O` [Example 3, 1-Amino-5-methyl-2-thia-cyclopenta[a]inden-8-one] showed a melting point of 157 to 159 °C.
Still for that read-out and setting: to `Nc1scc2c1C(=O)c1c(Cl)cccc1-2` [Example 4, 1-Amino-7-chloro-2-thia-cyclopenta[a]inden-8-one] belongs 183 to 185 °C; to `Nc1scc2c1C(=O)c1ccc(Cl)cc1-2` [Example 5, 1-Amino-5-chloro-2-thia-cyclopenta[a]inden-8-one], 201 to 202 °C; to `Nc1scc2c1C(=O)c1c-2ccc(Cl)c1Cl` [Example 6, 1-Amino-6,7-dichloro-2-thia-cyclopenta[a]inden-8-one], 254 to 255 °C.
As for `Nc1scc2c1C(=O)c1cc(Br)ccc1-2` [Example 21, 1-Amino-6-bromo-2-thia-cyclopenta[a]inden-8-one], the “Change in cAMP Content from Control (Mean ± SEM)” value (“Change … (Mean ± SEM)” for short) is recorded as −5 ± 4% in data set [1] (0.01 μM test compound), −15 ± 2% in data set [1] (0.1 μM test compound), 4 ± 5% in data set [1] (1 μM test compound) and −16 ± 3% in data set [1] (10 μM test compound).
Taken in the same sequence, the figures for `Nc1scc2c1C(O)c1ccc(Cl)cc1-2` (stereo not shown) [Example 22, 1-Amino-5-chloro-8-hydroxy-2-thia-cyclopenta[a]indene] were 4 ± 2%, −1 ± 8%, 0 ± 7% and −17 ± 2%.
On the same counts, the results for `CC(=O)Nc1scc2c1C(=O)c1ccc(Cl)cc1-2` [Example 23, 1-Acetylamino-5-chloro-2-thia-cyclopenta[a]inden-8-one] are −7 ± 2%, 9 ± 9%, −16 ± 3% and −42 ± 1%.
For `Nc1ccc2c(c1)C(=O)c1c-2csc1N` [Example 24, 1,6-Diamino-2-thia-cyclopenta[a]inden-8-one], the “Change … (Mean ± SEM)” value in data set [1] (0.01 μM test compound) was 5 ± 3%; in data set [1] (0.1 μM test compound) it was 5 ± 3%; in data set [1] (1 μM test compound), −1 ± 1%; in data set [1] (10 μM test compound), −23 ± 6%.
`Nc1scc2c1C(=O)c1ccc(Cl)c(Cl)c1-2` [Example 25, 1-Amino-4,5-dichloro-2-thia-cyclopenta[a]inden-8-one]: the “Change … (Mean ± SEM)” value is reported as 0 ± 5% in data set [1] (0.01 μM test compound), −9 ± 8% in data set [1] (0.1 μM test compound), −46 ± 2% in data set [1] (1 μM test compound) and −75 ± 3% in data set [1] (10 μM test compound).
Consider `Nc1sc2c3c1C(=O)c1ccc(Cl)cc1C3CN(Cc1ccccc1)C2` (stereo not shown) [Example 26, 5-Amino-2-benzyl-9-chloro-1,2,3,10b-tetrahydro-6H-benzo[h]thieno[2,3,4-de]isoquinolin-6-one], for which the “Change … (Mean ± SEM)” value is recorded as −4 ± 1% in data set [1] (0.01 μM test compound), −1 ± 7% in data set [1] (0.1 μM test compound), 15 ± 6% in data set [1] (1 μM test compound) and 25 ± 7% in data set [1] (10 μM test compound).
On to `Nc1scc2c1C(=O)c1c(Cl)cccc1C21SCCCS1` [Example 27, 3-Amino-5-chloro-9-spiro(1,3-dithian-2-yl)-9H-naphtho[2,3-c]thiophene-4-one], for which the “Change … (Mean ± SEM)” value in data set [1] (0.01 μM test compound) stood at 6 ± 3%; in data set [1] (0.1 μM test compound), 8 ± 5%; in data set [1] (1 μM test compound), 8 ± 9%; in data set [1] (10 μM test compound), 0 ± 9%.
Taken in the same sequence, the figures for `Cc1sc(N)c(C(=O)c2cccc(C(F)(F)F)c2)c1C` [PD 81,72, reference compound] were 4 ± 2%, 8 ± 3%, −32 ± 2% and −75 ± 1%.
